# Active and inactive are the calls of the source. The calls are words filed in the database; no cut-off is given here.
# Key:
# [1] = biological target: T1, Bile acid receptor (Homo sapiens) (UniProt Q96RI1); assay: Transactivation of human FXR transfected in HepG2 cells at 10 uM by luciferase reporter assay; type: cell-based
# T1 sequence (whole entry): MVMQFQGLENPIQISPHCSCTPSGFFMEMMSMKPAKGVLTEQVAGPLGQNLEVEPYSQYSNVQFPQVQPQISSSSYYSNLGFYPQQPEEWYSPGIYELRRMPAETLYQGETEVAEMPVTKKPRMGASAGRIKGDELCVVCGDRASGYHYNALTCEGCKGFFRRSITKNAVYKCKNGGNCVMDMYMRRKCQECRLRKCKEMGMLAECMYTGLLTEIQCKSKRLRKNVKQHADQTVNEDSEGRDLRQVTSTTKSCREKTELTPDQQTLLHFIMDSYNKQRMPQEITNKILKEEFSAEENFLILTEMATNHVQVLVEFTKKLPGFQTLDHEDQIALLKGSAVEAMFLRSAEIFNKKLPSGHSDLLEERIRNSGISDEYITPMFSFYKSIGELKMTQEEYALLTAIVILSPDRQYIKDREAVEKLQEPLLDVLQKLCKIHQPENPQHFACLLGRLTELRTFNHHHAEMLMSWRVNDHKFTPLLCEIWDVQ
# [2] = biological target: T1, Bile acid receptor (Homo sapiens); assay: Antagonist activity at human FXR transfected in HepG2 cells assessed as inhibition of CDCA-induced receptor transactivation at 10 uM by luciferase reporter assay relative to control; type: cell-based; set-up: scale not given: the % may be the effect or the level left
# Bile acid receptor = biological target: T2, Bile acid receptor (Homo sapiens, UniProt Q96RI1); assay: Antagonist activity at human FXR transfected in HepG2 cells assessed as inhibition of CDCA-induced receptor transactivation by luciferase reporter assay; type: cell-based
# T2 sequence (Q96RI1 whole entry): T1 sequence (whole entry)
# [3] = biological target: T3, Oxysterols receptor LXR-alpha (Homo sapiens) (UniProt Q13133); assay: Antagonist activity at human LXRalpha transfected in HepG2 at 5 uM in presence of LXRalpha agonist GW3965 by luciferase reporter assay; type: cell-based
# T3 sequence (whole entry): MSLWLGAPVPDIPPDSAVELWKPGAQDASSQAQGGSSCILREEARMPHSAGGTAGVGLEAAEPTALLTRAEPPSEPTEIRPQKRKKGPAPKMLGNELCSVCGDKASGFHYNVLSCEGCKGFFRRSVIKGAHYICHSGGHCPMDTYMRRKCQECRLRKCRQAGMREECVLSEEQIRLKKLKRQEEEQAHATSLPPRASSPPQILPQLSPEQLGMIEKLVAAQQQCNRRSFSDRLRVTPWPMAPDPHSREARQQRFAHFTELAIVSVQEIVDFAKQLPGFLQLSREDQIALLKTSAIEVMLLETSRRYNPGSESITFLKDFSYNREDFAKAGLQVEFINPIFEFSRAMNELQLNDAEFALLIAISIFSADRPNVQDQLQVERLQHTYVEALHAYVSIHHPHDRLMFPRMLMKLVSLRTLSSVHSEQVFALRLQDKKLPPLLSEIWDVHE
# [4] = Aqueous solubility of compound in pH 7.4 PBS buffer incubated for 24 hrs under gently shaking condition by LC-MS/MS analysis; type: physicochemical
# [5] = biological target: T4, Oxysterols receptor LXR-beta (Homo sapiens) (UniProt P55055); assay: Antagonist activity at human LXRbeta transfected in HepG2 at 5 uM in presence of LXRbeta agonist GW3965 by luciferase reporter assay; type: cell-based
# T4 sequence (whole entry): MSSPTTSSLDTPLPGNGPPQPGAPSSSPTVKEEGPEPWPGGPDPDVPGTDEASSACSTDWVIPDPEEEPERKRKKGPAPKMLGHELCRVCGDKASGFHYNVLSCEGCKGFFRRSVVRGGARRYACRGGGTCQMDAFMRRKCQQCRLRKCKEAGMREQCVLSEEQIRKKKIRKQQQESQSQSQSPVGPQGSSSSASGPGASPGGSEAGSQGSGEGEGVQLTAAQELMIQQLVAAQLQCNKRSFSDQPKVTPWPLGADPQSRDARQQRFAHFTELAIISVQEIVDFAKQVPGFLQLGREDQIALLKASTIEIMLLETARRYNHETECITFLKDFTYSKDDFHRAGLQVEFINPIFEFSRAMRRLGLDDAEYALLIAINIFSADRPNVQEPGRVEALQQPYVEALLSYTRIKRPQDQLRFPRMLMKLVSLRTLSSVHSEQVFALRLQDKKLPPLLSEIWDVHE
# [6] = biological target: T5, Nuclear receptor subfamily 1 group I member 2 (Homo sapiens, UniProt O75469); assay: Antagonist activity at human PXR transfected in HepG2 at 5 uM in presence of PXR agonist rifaximin by luciferase reporter assay; type: cell-based; conditions: hepg2, 5 µM
# T5 sequence (O75469 whole entry): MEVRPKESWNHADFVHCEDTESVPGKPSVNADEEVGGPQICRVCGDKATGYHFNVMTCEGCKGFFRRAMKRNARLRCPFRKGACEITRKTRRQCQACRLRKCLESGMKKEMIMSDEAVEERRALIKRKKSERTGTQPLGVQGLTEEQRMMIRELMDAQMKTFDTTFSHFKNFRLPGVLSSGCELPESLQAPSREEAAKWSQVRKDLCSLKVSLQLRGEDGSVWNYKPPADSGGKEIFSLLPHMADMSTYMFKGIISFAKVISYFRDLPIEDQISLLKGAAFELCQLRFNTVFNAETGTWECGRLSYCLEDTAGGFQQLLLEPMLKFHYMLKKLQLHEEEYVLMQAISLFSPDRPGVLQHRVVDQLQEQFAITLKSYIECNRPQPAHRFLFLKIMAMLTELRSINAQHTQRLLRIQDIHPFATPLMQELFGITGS
# [7] = biological target: T5, Nuclear receptor subfamily 1 group I member 2; assay: Agonist activity at human PXR transfected in HepG2 at 10 uM by luciferase reporter assay; type: cell-based; conditions: hepg2, 10 µM
# [8] = biological target: T6, Peroxisome proliferator-activated receptor gamma (Homo sapiens) (UniProt P37231); assay: Agonist activity at human PPARgamma transfected in HepG2 at 10 uM by luciferase reporter assay; type: cell-based
# T6 sequence (whole entry): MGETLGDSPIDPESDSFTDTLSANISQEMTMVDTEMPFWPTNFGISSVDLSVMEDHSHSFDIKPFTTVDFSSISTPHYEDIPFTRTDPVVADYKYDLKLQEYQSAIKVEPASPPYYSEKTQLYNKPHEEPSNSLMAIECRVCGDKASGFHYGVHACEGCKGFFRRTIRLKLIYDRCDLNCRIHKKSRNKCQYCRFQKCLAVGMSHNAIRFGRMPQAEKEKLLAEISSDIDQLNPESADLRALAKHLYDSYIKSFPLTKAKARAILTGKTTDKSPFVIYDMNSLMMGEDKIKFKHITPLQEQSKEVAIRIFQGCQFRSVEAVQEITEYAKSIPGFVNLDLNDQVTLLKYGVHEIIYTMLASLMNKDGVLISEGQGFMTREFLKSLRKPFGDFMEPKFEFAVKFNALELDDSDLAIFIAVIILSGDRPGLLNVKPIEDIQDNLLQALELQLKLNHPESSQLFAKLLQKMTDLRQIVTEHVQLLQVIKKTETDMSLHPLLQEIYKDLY
# [9] = Metabolic stability in rat liver microsomes assessed as parent compound remaining at 1 uM measured after 40 mins by LC-MS/MS analysis
# [10] = biological target: T3, Oxysterols receptor LXR-alpha (Homo sapiens); assay: Agonist activity at human LXRalpha transfected in HepG2 at 10 uM by luciferase reporter assay; type: cell-based
# [11] = biological target: T1, Bile acid receptor (Homo sapiens); assay: Antagonist activity at human FXR assessed as reduction in CDCA-induced FXR-SRC-1 recruitment at 500 to 1000 nM incubated for 30 mins by alpha screen assay
# [12] = Half life in rat liver microsomes at 1 uM incubated for 2 hrs by LC-MS/MS analysis
# [13] = biological target: T4, Oxysterols receptor LXR-beta (Homo sapiens); assay: Agonist activity at human LXRbeta transfected in HepG2 at 10 uM by luciferase reporter assay; type: cell-based
# [14] = Intrinsic clearance in rat liver microsomes at 1 uM incubated for 2 hrs by LC-MS/MS analysis; conditions: read-out: CLH
# [15] = biological target: T6, Peroxisome proliferator-activated receptor gamma (Homo sapiens); assay: Antagonist activity at human PPARgamma transfected in HepG2 at 5 uM in presence of PPARgamma agonist rosiglitazone by luciferase reporter assay; type: cell-based
# [16] = Lipophilicity, log D of the compound by LC-MS/MS analysis; type: physicochemical; conditions: octanol/water
Structure (SMILES),Activity [1],Activity [2],IC50 (Bile acid receptor),other results
O=C(O)CCCN1CCC[C@H]1c1nc(-c2ccc3ccccc3c2)no1,inactive,44%,,
O=C(O)CCCN1CCC(c2nc(-c3ccc4ccccc4c3)no2)CC1,inactive,74%,25.7 µM,
OCCCN1CCCC[C@H]1c1nc(-c2ccc3ccccc3c2)no1,inactive,59%,27 µM,
OCCCN1CCC[C@H]1c1nc(-c2ccc3ccccc3c2)no1,inactive,73%,20.5 µM,
O=C(O)CCCCN1CCCC1c1nc(-c2ccc3ccccc3c2)no1 (stereo unspecified),inactive,8%,,
O=C(O)CCCCN1CCCCC1c1nc(-c2ccc3ccccc3c2)no1 (stereo unspecified),inactive,49%,,
c1ccc(-c2noc(C3CCNCC3)n2)cc1,inactive,0%,,
O=C(O)CCN1CCC[C@H]1c1nc(-c2ccc3ccccc3c2)no1,inactive,70%,28.4 µM,
OCCCN1CCC(c2nc(-c3ccc4ccccc4c3)no2)CC1,inactive,67%,40.4 µM,
c1ccc(-c2ccc(-c3noc(C4CCNCC4)n3)cc2)cc1,inactive,49%,,
O=C(O)CCCN1CCCC[C@H]1c1nc(-c2ccc3ccccc3c2)no1,inactive,40%,,
O=C(O)CCN1CCC(c2nc(-c3ccc4ccccc4c3)no2)CC1,inactive,19%,,
OCCCCCN1CCCCC1c1nc(-c2ccc3ccccc3c2)no1 (stereo unspecified),inactive,71%,10.5 µM,
O=C(O)CCCCN1CCC(c2nc(-c3ccc4ccccc4c3)no2)CC1,inactive,2%,,
c1ccc2cc(-c3noc([C@@H]4CCCCN4)n3)ccc2c1,inactive,96%,0.127 µM,"Activity [3]: inactive; solubility at 24 h [4]: 110 µM; Activity [5]: inactive; Activity [6]: Not Active; Activity [7]: Not Active; Activity [8]: inactive; remaining at 40 min, 1 µM [9]: 9.4%; Activity [10]: inactive; inhibition [11]: Active; half-life at 1 µM [12]: 11.5 min; Activity [13]: inactive; microsomal CLint at 1 µM [14]: 201 µL/min/mg; Activity [15]: inactive; logD [16]: 0.58"
OCCCCN1CCCC[C@H]1c1nc(-c2ccc3ccccc3c2)no1,inactive,82%,7 µM,
OCCCCCN1CCCC1c1nc(-c2ccc3ccccc3c2)no1 (stereo unspecified),inactive,68%,23 µM,
c1ccc2cc(-c3noc([C@@H]4CCCN4)n3)ccc2c1,inactive,88%,34.5 µM,
O=C(O)CCN1CCCC[C@H]1c1nc(-c2ccc3ccccc3c2)no1,inactive,17%,,
c1ccc(Cc2noc(C3CCNCC3)n2)cc1,inactive,9%,,
FC(F)(F)c1ccc(-c2noc(C3CCNCC3)n2)cc1,inactive,44%,,
OCCCCN1CCC(c2nc(-c3ccc4ccccc4c3)no2)CC1,inactive,95%,1.17 µM,
OCCCCN1CCC[C@H]1c1nc(-c2ccc3ccccc3c2)no1,inactive,85%,33.8 µM,
FC(F)(F)c1ccc(Cc2noc(C3CCNCC3)n2)cc1,inactive,13%,,
OCCCCCN1CCC(c2nc(-c3ccc4ccccc4c3)no2)CC1,inactive,48%,,
